Source: patent US10214584B2, “Therapeutic pharmaceutical composition employing anti-SLC6A6 antibody” (ORDER-MADE MEDICAL RESEARCH INC., priority 2014, dated 2019)

How the values were obtained:
Type in all cases: cell-based, human
Colo320-SLC6A6-OEx = assay: Ratio of SP cells upon addition of taurine, Colo320-SLC6A6-OEx
Method: (§1) After being transformed in the same manner as shown in Example 8(1) above, the cells were detached on the second day with DISSOCIATION BUFFER (Invitrogen). The cells were stained at 37° C. for 1 hour with a solution prepared to contain 10 μg/mL Hoechst 33342 in PBS(−), followed by analysis using FACS Canto II and a Violet laser (excitation wavelength: 407 nm). Moreover, to identify an SP fraction, an additional experiment was conducted in which verapamil serving an inhibitor of drug efflux transporters was added at a concentration of 30 μg/mL.
(§2) For this analysis, Colo320 cells (which are human colorectal cancer cells) were engineered to overexpress SLC6A6 and cultured for 2 days in a medium supplemented with taurine at a concentration of 0.05 mM, 0.1 mM, 0.5 mM, 1 mM or 5 mM, and then analyzed for SP cells in the same manner as shown in Example 1(3).

Colo320-Mock = assay: Ratio of SP cells upon addition of taurine, Colo320-Mock; settings: taurine 0.05-5 mM, FIG. 10
Method: as §1, §2

[1] = test system: SW480 cells (SP and MP fractions); assay: FACS staining of SP and MP fractions of SW480 cells; settings: SW480, verapamil 30 μg/mL
Method: Moreover, to identify an SP fraction, an additional experiment was conducted in which verapamil serving an inhibitor of drug efflux transporters was added at a concentration of 30 μg/mL.
SLC6A6 expression was analyzed for the SP fraction and non-SP fraction (i.e., major population (MP) fraction) of SW480 cells, which are human colorectal cancer cells.

| Structure (SMILES) | increase of ratio of SP cells compared to the absence of taurine (Colo320-SLC6A6-OEx; 5 mM taurine) | ratio of SP cells (Colo320-SLC6A6-OEx; 5 mM taurine, cultured 2 days (17.0% in the absence of taurine)) [%] | number of SP cells (Colo320-SLC6A6-OEx; taurine 0.05-5 mM, FIG. 10) | number of SP cells (Colo320-Mock) | SP cells in the presence of verapamil [1] |
| --- | --- | --- | --- | --- | --- |
| NCCS(=O)(=O)O [taurine] | about 2.5 fold | 26.7 | increased in a manner dependent on the added concentration of taurine | increased in a manner dependent on the added concentration of taurine |  |
| COc1ccc(CCN(C)CCCC(C#N)(c2ccc(OC)c(OC)c2)C(C)C)cc1OC (centres unmarked) [verapamil] |  |  |  |  | no SP cells were observed |
